Assay results reported in PubChem BioAssay (NCI).
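Interpolation was linear, between the two tested concentrations surrounding the appropriate level; five concentrations were tested over 48 hours in 96-well plates. GI50 = concentration required for 50% inhibition of growth. TGI denotes the concentration required for complete inhibition of growth.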

Experiments:
Test in all cases: inhibition of tumour cell growth, NCI panel, 48 h; in the data active means GI50 below about 0.43 µM; inactive means the rest
MALME-3M melanoma = test system: MALME-3M melanoma
TK-10 renal = test system: TK-10 renal
UO-31 renal = test system: UO-31 renal
MDA-MB-231 breast = test system: MDA-MB-231 breast
SF-268 CNS = test system: SF-268 CNS
SK-MEL-5 melanoma = test system: SK-MEL-5 melanoma
NCI-H460 lung = test system: NCI-H460 lung
CAKI-1 renal = test system: CAKI-1 renal
M14 melanoma = test system: M14 melanoma
COLO 205 colon = test system: COLO 205 colon
SK-MEL-28 melanoma = test system: SK-MEL-28 melanoma
HCT-15 colon = test system: HCT-15 colon
K-562 leukemia = test system: K-562 leukemia
NCI-H23 lung = test system: NCI-H23 lung
OVCAR-8 ovarian = test system: OVCAR-8 ovarian
RXF 393 renal = test system: RXF 393 renal
RPMI-8226 leukemia = test system: RPMI-8226 leukemia
BT-549 breast = test system: BT-549 breast
HCC-2998 colon = test system: HCC-2998 colon
SF-295 CNS = test system: SF-295 CNS
MCF7 breast = test system: MCF7 breast
DU-145 prostate = test system: DU-145 prostate
786-0 renal = test system: 786-0 renal
PC-3 prostate = test system: PC-3 prostate
SK-MEL-2 melanoma = test system: SK-MEL-2 melanoma
OVCAR-4 ovarian = test system: OVCAR-4 ovarian
HOP-92 NSCLC = test system: HOP-92 NSCLC
MOLT-4 leukemia = test system: MOLT-4 leukemia
HL-60(TB) leukemia = test system: HL-60(TB) leukemia
SNB-75 CNS = test system: SNB-75 CNS
SK-OV-3 ovarian = test system: SK-OV-3 ovarian
HCT-116 colon = test system: HCT-116 colon
OVCAR-5 ovarian = test system: OVCAR-5 ovarian
NCI-H226 lung = test system: NCI-H226 lung
SW-620 colon = test system: SW-620 colon
NCI/ADR-RES ovarian = test system: NCI/ADR-RES ovarian
HT29 colon = test system: HT29 colon
SR leukemia = test system: SR leukemia
SF-539 CNS = test system: SF-539 CNS
CCRF-CEM leukemia = test system: CCRF-CEM leukemia
T-47D breast = test system: T-47D breast
SNB-19 CNS = test system: SNB-19 CNS
IGROV1 ovarian = test system: IGROV1 ovarian
EKVX NSCLC = test system: EKVX NSCLC
LOX IMVI melanoma = test system: LOX IMVI melanoma
SN12C renal = test system: SN12C renal
ACHN renal = test system: ACHN renal
HS 578T breast = test system: HS 578T breast
MDA-MB-435 = test system: MDA-MB-435
HOP-62 NSCLC = test system: HOP-62 NSCLC
A498 renal = test system: A498 renal
UACC-62 melanoma = test system: UACC-62 melanoma
A549 NSCLC = test system: A549 NSCLC
U251 CNS = test system: U251 CNS
NCI-H522 lung = test system: NCI-H522 lung
KM12 colon = test system: KM12 colon
OVCAR-3 ovarian = test system: OVCAR-3 ovarian

C[C@@H]1C[N+]2([O-])[C@H]3C4=CCC[C@@H]4CC[C@H]3[C@@]3(C)OC(=O)CC[C@]34CC[C@H]1[C@@H]42 (some centres undefined)
inactive: GI50 (MALME-3M melanoma) > 60 µM | GI50 (TK-10 renal) > 60 µM | GI50 (UO-31 renal) > 60 µM | GI50 (MDA-MB-231 breast) > 60 µM | GI50 (SF-268 CNS) > 60 µM | GI50 (SK-MEL-5 melanoma) > 60 µM | GI50 (NCI-H460 lung) > 60 µM | GI50 (CAKI-1 renal) > 60 µM | GI50 (M14 melanoma) > 60 µM | GI50 (COLO 205 colon) > 60 µM | GI50 (SK-MEL-28 melanoma) > 60 µM | GI50 (HCT-15 colon) > 60 µM | GI50 (K-562 leukemia) > 60 µM | GI50 (NCI-H23 lung) > 60 µM | GI50 (OVCAR-8 ovarian) > 60 µM | GI50 (RXF 393 renal) > 60 µM | GI50 (RPMI-8226 leukemia) > 60 µM | GI50 (BT-549 breast) > 60 µM | GI50 (HCC-2998 colon) > 60 µM | GI50 (SF-295 CNS) > 60 µM | GI50 (MCF7 breast) > 60 µM | GI50 (DU-145 prostate) > 60 µM | GI50 (786-0 renal) > 60 µM | GI50 (PC-3 prostate) > 60 µM | GI50 (SK-MEL-2 melanoma) > 60 µM | GI50 (OVCAR-4 ovarian) > 60 µM | GI50 (HOP-92 NSCLC) > 60 µM | GI50 (MOLT-4 leukemia) > 60 µM | GI50 (HL-60(TB) leukemia) > 60 µM | GI50 (SNB-75 CNS) > 60 µM | GI50 (SK-OV-3 ovarian) > 60 µM | GI50 (HCT-116 colon) > 60 µM | GI50 (OVCAR-5 ovarian) > 60 µM | GI50 (NCI-H226 lung) > 60 µM | GI50 (SW-620 colon) > 60 µM | GI50 (NCI/ADR-RES ovarian) > 60 µM | GI50 (HT29 colon) > 60 µM | GI50 (SR leukemia) > 60 µM | GI50 (SF-539 CNS) > 60 µM | GI50 (CCRF-CEM leukemia) > 60 µM | GI50 (T-47D breast) > 60 µM | GI50 (SNB-19 CNS) > 60 µM | GI50 (IGROV1 ovarian) > 60 µM | GI50 (EKVX NSCLC) > 60 µM | GI50 (LOX IMVI melanoma) > 60 µM | GI50 (SN12C renal) > 60 µM | GI50 (ACHN renal) > 60 µM | GI50 (HS 578T breast) > 60 µM | GI50 (MDA-MB-435) > 60 µM | GI50 (HOP-62 NSCLC) > 60 µM | GI50 (A498 renal) > 60 µM | GI50 (UACC-62 melanoma) > 60 µM | GI50 (A549 NSCLC) > 60 µM | GI50 (U251 CNS) > 60 µM | GI50 (NCI-H522 lung) > 60 µM | GI50 (KM12 colon) > 60 µM | GI50 (OVCAR-3 ovarian) > 60 µM
> 60 µM: TGI (MALME-3M melanoma) | TGI (TK-10 renal) | TGI (UO-31 renal) | TGI (MDA-MB-231 breast) | TGI (SF-268 CNS) | TGI (SK-MEL-5 melanoma) | TGI (NCI-H460 lung) | TGI (CAKI-1 renal) | TGI (M14 melanoma) | TGI (COLO 205 colon) | TGI (SK-MEL-28 melanoma) | TGI (HCT-15 colon) | TGI (K-562 leukemia) | TGI (NCI-H23 lung) | TGI (OVCAR-8 ovarian) | TGI (RXF 393 renal) | TGI (RPMI-8226 leukemia) | TGI (BT-549 breast) | TGI (HCC-2998 colon) | TGI (SF-295 CNS) | TGI (MCF7 breast) | TGI (DU-145 prostate) | TGI (786-0 renal) | TGI (PC-3 prostate) | TGI (SK-MEL-2 melanoma) | TGI (OVCAR-4 ovarian) | TGI (HOP-92 NSCLC) | TGI (MOLT-4 leukemia) | TGI (HL-60(TB) leukemia) | TGI (SNB-75 CNS) | TGI (SK-OV-3 ovarian) | TGI (HCT-116 colon) | TGI (OVCAR-5 ovarian) | TGI (NCI-H226 lung) | TGI (SW-620 colon) | TGI (NCI/ADR-RES ovarian) | TGI (HT29 colon) | TGI (SR leukemia) | TGI (SF-539 CNS) | TGI (CCRF-CEM leukemia) | TGI (T-47D breast) | TGI (SNB-19 CNS) | TGI (IGROV1 ovarian) | TGI (EKVX NSCLC) | TGI (LOX IMVI melanoma) | TGI (SN12C renal) | TGI (ACHN renal) | TGI (HS 578T breast) | TGI (MDA-MB-435) | TGI (HOP-62 NSCLC) | TGI (A498 renal) | TGI (UACC-62 melanoma) | TGI (A549 NSCLC) | TGI (U251 CNS) | TGI (NCI-H522 lung) | TGI (KM12 colon) | TGI (OVCAR-3 ovarian)
